# Results reported in ChEMBL document CHEMBL3885861, “Open TG-GATES”.
# Organism: Rattus norvegicus
# Assay: Open TG-GATES - Regimen: Single
# Assay type: toxicity, organism-based, Sprague-Dawley
# Parameters: regimen Single, gender Male, age 6 weeks
# Conditions: in vivo, po, route gavage; for gamma-GTP / ALP / ALT / AST / BUN / CRE / DBIL / GLC / K / LDH / Na / PL / RALB / TBIL / TC / TG / TP: tissue Plasma; for APTT / Bas / Eos / Fbg / Hb / Ht / Lym / MCHC / MCV / Mono / PT / Plat / RBC / Ret / WBC: tissue Blood; for KIDNEY_L / KIDNEY_R / KIDNEY_TOTAL: tissue Kidney; for LIVER: tissue Liver
# [1] = 1200 mg/kg, 3 h, dose level Middle
# [2] = 1200 mg/kg, 6 h, dose level Middle
# [3] = 1200 mg/kg, 9 h, dose level Middle
# [4] = 1200 mg/kg, 24 h, dose level Middle
# [5] = 2000 mg/kg, 3 h, dose level High
# [6] = 2000 mg/kg, 6 h, dose level High
# [7] = 2000 mg/kg, 9 h, dose level High
# [8] = 2000 mg/kg, 24 h, dose level High
structure (smiles),measurement,setting,value
O=C1NC(=O)C(c2ccccc2)(c2ccccc2)N1 [PHENYTOIN],gamma-GTP,"600 mg/kg, 24 h, dose level Low",1 IU/L
same,TERMINAL_BW,[1],211.8 g
same,APTT,[1],16.7 s
same,Bas,[1],0.2%
same,Eos,[1],1%
same,Fbg,[1],284.4 mg/dL
same,Hb,[1],13 g/dL
same,Ht,[1],38.7%
same,Lym,[1],75.2%
same,MCHC,[1],33.6%
same,MCV,[1],62.4 fL
same,Mono,[1],3.4%
same,PT,[1],13.8 s
same,Plat,[1],122.5 x10_4/uL
same,RBC,[1],621.4 x10_4/ul
same,Ret,[1],8.4%
same,KIDNEY_L,[1],0.9 g
same,KIDNEY_R,[1],0.9 g
same,KIDNEY_TOTAL,[1],1.8 g
same,LIVER,[1],9.3 g
same,ALP,[1],1502.4 IU/L
same,ALT,[1],35.2 IU/L
same,AST,[1],70.6 IU/L
same,BUN,[1],10.2 mg/dL
same,CRE,[1],0.2 mg/dL
same,DBIL,[1],0.016 mg/dL
same,GLC,[1],191.4 mg/dL
same,K,[1],4 meq/L
same,LDH,[1],98.2 IU/L
same,Na,[1],142.2 meq/L
same,PL,[1],146.8 mg/dL
same,RALB,[1],2.5 g/dL
same,TBIL,[1],0.052 mg/dL
same,TC,[1],75.6 mg/dL
same,TG,[1],74 mg/dL
same,TP,[1],5.4 g/dL
same,gamma-GTP,[1],1.2 IU/L
same,TERMINAL_BW,[2],207.5 g
same,APTT,[2],18 s
same,Bas,[2],0.4%
same,Eos,[2],1%
same,Fbg,[2],279.4 mg/dL
same,Hb,[2],13 g/dL
same,Ht,[2],38.7%
same,Lym,[2],73.2%
same,MCHC,[2],33.7%
same,MCV,[2],61.9 fL
same,Mono,[2],3%
same,PT,[2],14.5 s
same,RBC,[2],625.6 x10_4/ul
same,Ret,[2],8.2%
same,WBC,[2],94.4 x10_2/uL
same,KIDNEY_L,[2],0.9 g
same,KIDNEY_R,[2],0.9 g
same,KIDNEY_TOTAL,[2],1.9 g
same,LIVER,[2],8.7 g
same,ALP,[2],1256.2 IU/L
same,ALT,[2],35.8 IU/L
same,AST,[2],74.8 IU/L
same,BUN,[2],7.8 mg/dL
same,CRE,[2],0.2 mg/dL
same,DBIL,[2],0.016 mg/dL
same,GLC,[2],187 mg/dL
same,K,[2],3.7 meq/L
same,LDH,[2],77 IU/L
same,Na,[2],143.4 meq/L
same,PL,[2],141.4 mg/dL
same,RALB,[2],2.5 g/dL
same,TBIL,[2],0.058 mg/dL
same,TC,[2],76.8 mg/dL
same,TG,[2],30.6 mg/dL
same,TP,[2],5.4 g/dL
same,gamma-GTP,[2],1.2 IU/L
same,TERMINAL_BW,[3],206.4 g
same,APTT,[3],15.4 s
same,Bas,[3],0.4%
same,Eos,[3],1%
same,Fbg,[3],297 mg/dL
same,Hb,[3],13.1 g/dL
same,Ht,[3],38.9%
same,Lym,[3],78.6%
same,MCHC,[3],33.6%
same,MCV,[3],62.8 fL
same,Mono,[3],2%
same,PT,[3],14.1 s
same,Plat,[3],112.1 x10_4/uL
same,RBC,[3],619.2 x10_4/ul
same,Ret,[3],7.6%
same,WBC,[3],69.7 x10_2/uL
same,KIDNEY_L,[3],0.9 g
same,KIDNEY_R,[3],0.9 g
same,KIDNEY_TOTAL,[3],1.8 g
same,LIVER,[3],8 g
same,ALP,[3],1378 IU/L
same,ALT,[3],27.2 IU/L
same,AST,[3],71 IU/L
same,BUN,[3],7.4 mg/dL
same,CRE,[3],0.2 mg/dL
same,DBIL,[3],0.016 mg/dL
same,GLC,[3],194 mg/dL
same,K,[3],4.1 meq/L
same,LDH,[3],70.8 IU/L
same,Na,[3],142.2 meq/L
same,PL,[3],148.8 mg/dL
same,RALB,[3],2.6 g/dL
same,TBIL,[3],0.058 mg/dL
same,TC,[3],80 mg/dL
same,TG,[3],29.8 mg/dL
same,TP,[3],5.6 g/dL
same,gamma-GTP,[3],1 IU/L
same,TERMINAL_BW,[4],211.5 g
same,APTT,[4],16.7 s
same,Bas,[4],0.2%
same,Eos,[4],1.2%
same,Fbg,[4],278.6 mg/dL
same,Hb,[4],13.6 g/dL
same,Ht,[4],40%
same,Lym,[4],78.6%
same,MCHC,[4],33.9%
same,MCV,[4],61.9 fL
same,Mono,[4],2.4%
same,PT,[4],14.3 s
same,Plat,[4],118.4 x10_4/uL
same,RBC,[4],646.4 x10_4/ul
same,Ret,[4],7.1%
same,WBC,[4],94.4 x10_2/uL
same,KIDNEY_L,[4],1 g
same,KIDNEY_R,[4],1 g
same,KIDNEY_TOTAL,[4],1.9 g
same,LIVER,[4],8.6 g
same,ALP,[4],1604.8 IU/L
same,ALT,[4],29 IU/L
same,AST,[4],66.2 IU/L
same,BUN,[4],10 mg/dL
same,CRE,[4],0.2 mg/dL
same,DBIL,[4],0.02 mg/dL
same,GLC,[4],175.4 mg/dL
same,K,[4],4.2 meq/L
same,LDH,[4],102.4 IU/L
same,Na,[4],142.4 meq/L
same,PL,[4],126.6 mg/dL
same,RALB,[4],2.5 g/dL
same,TBIL,[4],0.042 mg/dL
same,TC,[4],66.8 mg/dL
same,TG,[4],52.4 mg/dL
same,TP,[4],5.4 g/dL
same,gamma-GTP,[4],1 IU/L
same,TERMINAL_BW,[5],211 g
same,APTT,[5],19.4 s
same,Bas,[5],0.2%
same,Eos,[5],1%
same,Fbg,[5],266.2 mg/dL
same,Hb,[5],13.1 g/dL
same,Ht,[5],38.8%
same,Lym,[5],77.6%
same,MCHC,[5],33.6%
same,MCV,[5],61.9 fL
same,Mono,[5],3.4%
same,PT,[5],14.1 s
same,Plat,[5],118.3 x10_4/uL
same,RBC,[5],626.4 x10_4/ul
same,Ret,[5],8.3%
same,WBC,[5],94.8 x10_2/uL
same,KIDNEY_L,[5],0.9 g
same,KIDNEY_R,[5],0.9 g
same,KIDNEY_TOTAL,[5],1.8 g
same,LIVER,[5],8.7 g
same,ALP,[5],1674 IU/L
same,ALT,[5],37.8 IU/L
same,AST,[5],76 IU/L
same,BUN,[5],10.2 mg/dL
same,CRE,[5],0.2 mg/dL
same,DBIL,[5],0.012 mg/dL
same,GLC,[5],185.6 mg/dL
same,K,[5],3.9 meq/L
same,LDH,[5],78.4 IU/L
same,Na,[5],141.4 meq/L
same,PL,[5],137.8 mg/dL
same,RALB,[5],2.5 g/dL
same,TBIL,[5],0.058 mg/dL
same,TC,[5],72 mg/dL
same,TG,[5],41.8 mg/dL
same,TP,[5],5.4 g/dL
same,gamma-GTP,[5],1.2 IU/L
same,TERMINAL_BW,[6],208.6 g
same,APTT,[6],16.1 s
same,Bas,[6],0.2%
same,Eos,[6],0.8%
same,Fbg,[6],289 mg/dL
same,Hb,[6],13.1 g/dL
same,Ht,[6],39.2%
same,Lym,[6],79.2%
same,MCHC,[6],33.4%
same,MCV,[6],61.4 fL
same,Mono,[6],2.4%
same,PT,[6],14.3 s
same,RBC,[6],637.2 x10_4/ul
same,Ret,[6],7.9%
same,WBC,[6],80.1 x10_2/uL
same,KIDNEY_L,[6],1 g
same,KIDNEY_R,[6],0.9 g
same,KIDNEY_TOTAL,[6],1.9 g
same,LIVER,[6],8.5 g
same,ALP,[6],1539.4 IU/L
same,ALT,[6],32 IU/L
same,AST,[6],71.8 IU/L
same,BUN,[6],8.6 mg/dL
same,CRE,[6],0.2 mg/dL
same,DBIL,[6],0.016 mg/dL
same,GLC,[6],186.4 mg/dL
same,K,[6],3.8 meq/L
same,LDH,[6],94.8 IU/L
same,Na,[6],142.2 meq/L
same,PL,[6],139.6 mg/dL
same,RALB,[6],2.5 g/dL
same,TBIL,[6],0.058 mg/dL
same,TC,[6],74.2 mg/dL
same,TG,[6],26 mg/dL
same,TP,[6],5.4 g/dL
same,gamma-GTP,[6],1.4 IU/L
same,TERMINAL_BW,[7],209.1 g
same,APTT,[7],15.5 s
same,Bas,[7],0.4%
same,Eos,[7],1%
same,Fbg,[7],295.6 mg/dL
same,Hb,[7],12.9 g/dL
same,Ht,[7],38.7%
same,Lym,[7],77.6%
same,MCHC,[7],33.4%
same,MCV,[7],61.4 fL
same,Mono,[7],1.6%
same,PT,[7],14 s
same,Plat,[7],122 x10_4/uL
same,RBC,[7],631.4 x10_4/ul
same,Ret,[7],8%
same,WBC,[7],93 x10_2/uL
same,KIDNEY_L,[7],0.9 g
same,KIDNEY_R,[7],0.9 g
same,KIDNEY_TOTAL,[7],1.8 g
same,LIVER,[7],7.6 g
same,ALP,[7],1420.6 IU/L
same,ALT,[7],31.6 IU/L
same,AST,[7],74.6 IU/L
same,BUN,[7],7.8 mg/dL
same,CRE,[7],0.2 mg/dL
same,DBIL,[7],0.016 mg/dL
same,GLC,[7],182.2 mg/dL
same,K,[7],3.9 meq/L
same,LDH,[7],83.2 IU/L
same,Na,[7],141.8 meq/L
same,PL,[7],124 mg/dL
same,RALB,[7],2.6 g/dL
same,TBIL,[7],0.062 mg/dL
same,TC,[7],66 mg/dL
same,TG,[7],23.2 mg/dL
same,TP,[7],5.5 g/dL
same,gamma-GTP,[7],1.8 IU/L
same,TERMINAL_BW,[8],203.9 g
same,APTT,[8],17 s
same,Bas,[8],0%
same,Eos,[8],1%
same,Fbg,[8],279.2 mg/dL
same,Hb,[8],13.8 g/dL
same,Ht,[8],40.9%
same,Lym,[8],75.4%
same,MCHC,[8],33.7%
same,MCV,[8],62.5 fL
same,Mono,[8],2.2%
same,PT,[8],14.3 s
same,Plat,[8],121.4 x10_4/uL
same,RBC,[8],654.4 x10_4/ul
same,Ret,[8],7.7%
same,WBC,[8],89.2 x10_2/uL
same,KIDNEY_L,[8],1 g
same,KIDNEY_R,[8],1 g
same,KIDNEY_TOTAL,[8],1.9 g
same,LIVER,[8],8 g
same,ALP,[8],1411 IU/L
same,ALT,[8],25.2 IU/L
same,AST,[8],66 IU/L
same,BUN,[8],9.8 mg/dL
same,CRE,[8],0.2 mg/dL
same,DBIL,[8],0.014 mg/dL
same,GLC,[8],174.8 mg/dL
same,K,[8],4.3 meq/L
same,LDH,[8],77 IU/L
same,Na,[8],141.8 meq/L
same,PL,[8],124.8 mg/dL
same,RALB,[8],2.6 g/dL
same,TBIL,[8],0.052 mg/dL
same,TC,[8],67.6 mg/dL
same,TG,[8],38 mg/dL
same,TP,[8],5.7 g/dL
same,gamma-GTP,[8],1.2 IU/L
